We go through 15 compounds from patent publication US9073855B2, “BCL-2 selective apoptosis-inducing agents for the treatment of cancer and immune diseases” (AbbVie Inc., priority 2008, dated 2015).

The term pKi denotes the negative decadic logarithm of the Ki, by convention in mol/L. Low readings indicate a high Ki, high ones a low Ki.

One assay deals with GST-Bcl-XL (Homo sapiens, UniProt Q07817). Briefly: TR-FRET binding assay, GST-Bcl-XL with F-Bak peptide probe. Particulars: TR-FRET Binding Affinity. The essentials:
(§1)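 Displacement of a fluorescein-labelled Bak peptide from the GST-tagged protein was followed by time-resolved FRET with a terbium anti-GST donor after 3 h incubation at room temperature. Inhibition constants were calculated with Wang's equation.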

The next assay addresses GST-Bcl-2 (Homo sapiens, UniProt P10415). Nature of the assay: TR-FRET binding assay, GST-Bcl-2 with F-Bak peptide probe. The conditions noted are these: for pKi: TR-FRET Binding Affinity; for Binding selectivity ratio (Bcl-XL Ki/Bcl-2 Ki): TR-FRET, Bcl-XL Ki divided by Bcl-2 Ki. The essentials:
as §1

pKi: −log10 of the molar value.

Sequence of GST-Bcl-2 (P10415 whole entry): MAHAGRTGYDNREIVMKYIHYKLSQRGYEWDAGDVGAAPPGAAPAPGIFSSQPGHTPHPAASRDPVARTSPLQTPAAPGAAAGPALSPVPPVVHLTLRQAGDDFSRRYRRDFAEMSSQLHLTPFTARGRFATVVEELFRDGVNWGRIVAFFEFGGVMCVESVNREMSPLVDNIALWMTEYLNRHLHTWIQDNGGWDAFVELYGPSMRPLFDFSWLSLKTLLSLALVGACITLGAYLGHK
Sequence of GST-Bcl-XL (Q07817 whole entry): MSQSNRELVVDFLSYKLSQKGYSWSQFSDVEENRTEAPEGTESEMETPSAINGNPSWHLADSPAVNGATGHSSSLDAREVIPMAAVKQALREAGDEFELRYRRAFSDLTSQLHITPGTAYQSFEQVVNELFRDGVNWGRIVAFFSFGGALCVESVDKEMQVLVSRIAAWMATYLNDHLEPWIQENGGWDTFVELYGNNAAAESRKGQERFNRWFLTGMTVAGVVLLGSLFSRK

With `CC1(C)CCC(CN2CCN(c3ccc(C(=O)NS(=O)(=O)c4cnc(OC[C@@H]5CN(C6CC6)CCO5)c(Cl)c4)c(Oc4cccc5[nH]ncc45)c3)CC2)=C(c2ccc(Cl)cc2)C1` [Example 504, N-[(5-chloro-6-{[(2S)-4-cyclopropylmorpholin-2-yl]methoxy}pyridin-3-yl)sulfonyl]-4-(4-{[2-(4-chlorophenyl)-4,4-dimethylcyclohex-1-en-1-yl]methyl}piperazin-1-yl)-2-(1H-indazol-4-yloxy)benzamide], the figures for the pKi on GST-Bcl-XL and at GST-Bcl-2 were 8.26 and greater than 11.00, respectively. Besides, on GST-Bcl-2, the “Binding selectivity ratio (Bcl-XL Ki/Bcl-2 Ki)” value (“Binding selectivity ratio” for short) is listed as greater than 549.9.

For `COC(=O)N1CCOC(CNc2ccc(S(=O)(=O)NC(=O)c3ccc(N4CCN(CC5=C(c6ccc(Cl)cc6)CC(C)(C)CC5)CC4)cc3Oc3cccc4[nH]ncc34)cc2[N+](=O)[O-])C1` (stereo not drawn) [Example 505, methyl 2-{[(4-{[4-(4-{[2-(4-chlorophenyl)-4,4-dimethylcyclohex-1-en-1-yl]methyl}piperazin-1-yl)-2-(1H-indazol-4-yloxy)benzoyl]sulfamoyl}-2-nitrophenyl)amino]methyl}morpholine-4-carboxylate], the values for the pKi at GST-Bcl-XL and on GST-Bcl-2 were 8.31 and greater than 11.00, respectively. The “Binding selectivity ratio” value on GST-Bcl-2 was greater than 486.1.

`CCN(C)C(=O)N1CCOC(CNc2ccc(S(=O)(=O)NC(=O)c3ccc(N4CCN(CC5=C(c6ccc(Cl)cc6)CC(C)(C)CC5)CC4)cc3Oc3cccc4[nH]ncc34)cc2[N+](=O)[O-])C1` (stereo not drawn) [Example 506, 2-{[(4-{[4-(4-{[2-(4-chlorophenyl)-4,4-dimethylcyclohex-1-en-1-yl]methyl}piperazin-1-yl)-2-(1H-indazol-4-yloxy)benzoyl]sulfamoyl}-2-nitrophenyl)amino]methyl}-N-ethyl-N-methylmorpholine-4-carboxamide] had a negative logarithm of the Ki (pKi) at GST-Bcl-XL of 8.35. Moreover, on GST-Bcl-2, the pKi is greater than 11.00 and the “Binding selectivity ratio” value was greater than 445.7.

Regarding `CCN(C)C(=O)N1CCOC(CNc2ccc(S(=O)(=O)NC(=O)c3ccc(N4CCN(CC5=C(c6ccc(Cl)cc6)CC(C)(C)CC5)CC4)cc3Oc3cccc4[nH]cnc34)cc2[N+](=O)[O-])C1` (stereo not drawn) [Example 507, 2-{[(4-{[2-(1H-benzimidazol-4-yloxy)-4-(4-{[2-(4-chlorophenyl)-4,4-dimethylcyclohex-1-en-1-yl]methyl}piperazin-1-yl)benzoyl]sulfamoyl}-2-nitrophenyl)amino]methyl}-N-ethyl-N-methylmorpholine-4-carboxamide], the figures for the pKi at GST-Bcl-XL and on GST-Bcl-2 were 7.48 and greater than 11.00, respectively. For the same compound, the “Binding selectivity ratio” value at GST-Bcl-2 is recorded as greater than 3334.7.

`CC[C@]1(O)CC[C@H](COc2ncc(S(=O)(=O)NC(=O)c3ccc(N4CCN(CC5=C(c6ccc(Cl)cc6)CC(C)(C)CC5)CC4)cc3Oc3cccc4[nH]ncc34)cc2Cl)CC1` [Example 508, N-({5-chloro-6-[(trans-4-ethyl-4-hydroxycyclohexyl)methoxy]pyridin-3-yl}sulfonyl)-4-(4-{[2-(4-chlorophenyl)-4,4-dimethylcyclohex-1-en-1-yl]methyl}piperazin-1-yl)-2-(1H-indazol-4-yloxy)benzamide] had a negative logarithm of the Ki (pKi) on GST-Bcl-XL of 7.36. Moreover, on GST-Bcl-2, the pKi was greater than 11.00 and the “Binding selectivity ratio” value is greater than 4315.2.

For `CC[C@]1(O)CC[C@@H](COc2ncc(S(=O)(=O)NC(=O)c3ccc(N4CCN(CC5=C(c6ccc(Cl)cc6)CC(C)(C)CC5)CC4)cc3Oc3cccc4[nH]ncc34)cc2Cl)CC1` [Example 509, N-({5-chloro-6-[(cis-4-ethyl-4-hydroxycyclohexyl)methoxy]pyridin-3-yl}sulfonyl)-4-(4-{[2-(4-chlorophenyl)-4,4-dimethylcyclohex-1-en-1-yl]methyl}piperazin-1-yl)-2-(1H-indazol-4-yloxy)benzamide], the figures for the pKi on GST-Bcl-XL and at GST-Bcl-2 were 6.64 and 8.20, respectively. Besides, on GST-Bcl-2, the “Binding selectivity ratio” value is recorded as 36.4.

Take `CC1(C)CCC(CN2CCN(c3cc(Oc4cccc5[nH]ncc45)c(C(=O)NS(=O)(=O)c4cnc(OCC5(F)CCOCC5)c(Cl)c4)cc3Cl)CC2)=C(c2ccc(Cl)cc2)C1` [Example 510, 5-chloro-N-({5-chloro-6-[(4-fluorotetrahydro-2H-pyran-4-yl)methoxy]pyridin-3-yl}sulfonyl)-4-(4-{[2-(4-chlorophenyl)-4,4-dimethylcyclohex-1-en-1-yl]methyl}piperazin-1-yl)-2-(1H-indazol-4-yloxy)benzamide]: the figures for the pKi at GST-Bcl-XL and at GST-Bcl-2 were 6.76 and 9.17, respectively. Further, the “Binding selectivity ratio” value at GST-Bcl-2 came out at 257.8.

`CC1(C)CCC(CN2CCN(c3cc(Oc4cccc5[nH]ncc45)c(C(=O)NS(=O)(=O)c4ccc(NCC5(F)CCOCC5)c([N+](=O)[O-])c4)cc3Cl)CC2)=C(c2ccc(Cl)cc2)C1` [Example 511, 5-chloro-4-(4-{[2-(4-chlorophenyl)-4,4-dimethylcyclohex-1-en-1-yl]methyl}piperazin-1-yl)-N-[(4-{[(4-fluorotetrahydro-2H-pyran-4-yl)methyl]amino}-3-nitrophenyl)sulfonyl]-2-(1H-indazol-4-yloxy)benzamide] showed a pKi at GST-Bcl-XL of 7.67. In addition, on GST-Bcl-2, the pKi was greater than 11.00 and the “Binding selectivity ratio” value is recorded as greater than 2159.2.

Consider `CC1(C)CCC(CN2CCN(c3ccc(C(=O)NS(=O)(=O)c4cnc(OCC5(F)CCC(C)(O)CC5)c(Cl)c4)c(Oc4cccc5[nH]ncc45)c3)CC2)=C(c2ccc(Cl)cc2)C1` (stereo not drawn) [Example 512, N-({5-chloro-6-[(cis-1-fluoro-4-hydroxy-4-methylcyclohexyl)methoxy]pyridin-3-yl}sulfonyl)-4-(4-{[2-(4-chlorophenyl)-4,4-dimethylcyclohex-1-en-1-yl]methyl}piperazin-1-yl)-2-(1H-indazol-4-yloxy)benzamide], for which the pKi at GST-Bcl-XL is 7.76. Further, on GST-Bcl-2, the pKi was greater than 11.00 and the “Binding selectivity ratio” value was greater than 1733.8.

On GST-Bcl-XL, `CC1(C)CCC(CN2CCN(c3ccc(C(=O)NS(=O)(=O)c4cnc(OC[C@]5(F)CC[C@](C)(O)CC5)c(Cl)c4)c(Oc4cccc5[nH]ncc45)c3)CC2)=C(c2ccc(Cl)cc2)C1` [Example 513, N-({5-chloro-6-[(trans-1-fluoro-4-hydroxy-4-methylcyclohexyl)methoxy]pyridin-3-yl}sulfonyl)-4-(4-{[2-(4-chlorophenyl)-4,4-dimethylcyclohex-1-en-1-yl]methyl}piperazin-1-yl)-2-(1H-indazol-4-yloxy)benzamide] had a negative-log Ki (pKi) of 8.19. In addition, on GST-Bcl-2, the pKi was greater than 11.00 and the “Binding selectivity ratio” value is listed as greater than 646.2.

Turning to `CC1(C)CCC(CN2CCN(c3ccc(C(=O)NS(=O)(=O)c4ccc(NCC5(F)CCOCC5)c([N+](=O)[O-])c4)c(Oc4cccc5[nH]nnc45)c3)CC2)=C(c2ccc(Cl)cc2)C1` [Example 514, 2-(1H-benzotriazol-4-yloxy)-4-(4-{[2-(4-chlorophenyl)-4,4-dimethylcyclohex-1-en-1-yl]methyl}piperazin-1-yl)-N-[(4-{[(4-fluorotetrahydro-2H-pyran-4-yl)methyl]amino}-3-nitrophenyl)sulfonyl]benzamide], the pKi on GST-Bcl-XL is 7.98; on GST-Bcl-2 it was greater than 11.00. For the same compound, the “Binding selectivity ratio” value on GST-Bcl-2 is given as greater than 1041.3.

On GST-Bcl-XL, `CC1(C)CCC(CN2CCN(c3ccc(C(=O)NS(=O)(=O)c4cnc(OCC5(F)CCOCC5)c(Cl)c4)c(Oc4cccc5[nH]nnc45)c3)CC2)=C(c2ccc(Cl)cc2)C1` [Example 515, 2-(1H-benzotriazol-4-yloxy)-N-({5-chloro-6-[(4-fluorotetrahydro-2H-pyran-4-yl)methoxy]pyridin-3-yl}sulfonyl)-4-(4-{[2-(4-chlorophenyl)-4,4-dimethylcyclohex-1-en-1-yl]methyl}piperazin-1-yl)benzamide] gave a pKi of 6.85. In addition, on GST-Bcl-2, the pKi was greater than 11.00 and the “Binding selectivity ratio” value is given as greater than 13994.0.

On to `CC1(C)CCC(CN2CCN(c3ccc(C(=O)NS(=O)(=O)c4ccc(OCC5CCOCC5)c(Cl)c4)c(Oc4cccc5[nH]cnc45)c3)CC2)=C(c2ccc(Cl)cc2)C1` [Example 516, 2-(1H-benzimidazol-4-yloxy)-4-(4-{[2-(4-chlorophenyl)-4,4-dimethylcyclohex-1-en-1-yl]methyl}piperazin-1-yl)-N-{[3-chloro-4-(tetrahydro-2H-pyran-4-ylmethoxy)phenyl]sulfonyl}benzamide], for which, on GST-Bcl-XL, the negative logarithm of the Ki (pKi) was 8.32. Also, on GST-Bcl-2, the pKi is greater than 11.00 and the “Binding selectivity ratio” value is listed as greater than 482.3.

Take `CC1(C)CCC(CN2CCN(c3ccc(C(=O)NS(=O)(=O)c4ccc(OCC5(F)CCN(C6COC6)CC5)c(Cl)c4)c(Oc4cccc5[nH]ncc45)c3)CC2)=C(c2ccc(Cl)cc2)C1` [Example 517, N-[(3-chloro-4-{[4-fluoro-1-(oxetan-3-yl)piperidin-4-yl]methoxy}phenyl)sulfonyl]-4-(4-{[2-(4-chlorophenyl)-4,4-dimethylcyclohex-1-en-1-yl]methyl}piperazin-1-yl)-2-(1H-indazol-4-yloxy)benzamide]: the pKi on GST-Bcl-XL was 8.22. In addition, on GST-Bcl-2, the negative-log Ki (pKi) was greater than 11.00 and the “Binding selectivity ratio” value is reported as greater than 607.7.

As for `CC1(C)CCC(CN2CCN(c3ccc(C(=O)NS(=O)(=O)c4cnc(OCC5(F)CCC(O)CC5)c(Cl)c4)c(Oc4cccc5[nH]ncc45)c3)CC2)=C(c2ccc(Cl)cc2)C1` (stereo not drawn) [Example 518, N-({5-chloro-6-[(cis-1-fluoro-4-hydroxycyclohexyl)methoxy]pyridin-3-yl}sulfonyl)-4-(4-{[2-(4-chlorophenyl)-4,4-dimethylcyclohex-1-en-1-yl]methyl}piperazin-1-yl)-2-(1H-indazol-4-yloxy)benzamide], the negative logarithm of the Ki (pKi) at GST-Bcl-XL is 8.59. For the same compound, at GST-Bcl-2, the negative logarithm of the Ki (pKi) was greater than 11.00 and the “Binding selectivity ratio” value is greater than 254.6.
